Test results reported in patent US9580444B2, “Polycyclic pyrazolinone derivative and herbicide comprising same as effective component thereof” (priority 2013, dated 2017).

Key:
Assay type in all cases: in vivo
[1] = test system: Cyperus difformis (smallflower umbrella plant); experiment: Test Example-1: herbicidal effect by a treatment before weeds are generated under submerged conditions; settings: 500 g a.i/ha, pre-emergence treatment, about 15 days after treatment, score 0-5
Procedure, shortened: (§1)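 Scores (0–5, six stages) reflect visual weed control about 15 days after a same-day water application of the diluted formulated compound to freshly seeded, flooded paddy soil.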

[2] = test system: Echinochloa oryzicola (barnyard grass); experiment: as above; settings: 500 g a.i/ha, pre-emergence treatment, about 15 days after treatment, score 0-5
Procedure, shortened: as §1

[3] = test system: Eleocharis acicularis (needle spikerush); experiment: as above; settings: 500 g a.i/ha, pre-emergence treatment, about 15 days after treatment, score 0-5
Procedure, shortened: as §1

[4] = test system: Monochoria vaginalis (monochoria); experiment: as above; settings: 500 g a.i/ha, pre-emergence treatment, about 15 days after treatment, score 0-5
Procedure, shortened: as §1

[5] = test system: Scirpus juncoides (bulrush); experiment: as above; settings: 500 g a.i/ha, pre-emergence treatment, about 15 days after treatment, score 0-5
Procedure, shortened: as §1

[6] = test system: other annual broad leaf weeds (Lindernia procumbens, Rotala indica, Elatine triandra); experiment: as above; settings: 500 g a.i/ha, pre-emergence treatment, about 15 days after treatment, score 0-5
Procedure, shortened: as §1

[7] = test system: Amaranthus viridis (green amaranthus); experiment: Test Example-2: herbicidal effect by a soil treatment before weeds are generated under upland field conditions; settings: application amount 500 g a.i/ha, soil spray treatment before weeds are generated, about 21 days after the treatment, score 0 to 5
Text: (§2) Using the formulation prepared according to the methods described above, the herbicidal effect of the bicyclic pyrazolinone derivative of the invention according to the methods shown in Test Examples below was examined. The herbicidal effect with respect to the test weeds or the phytotoxicity with respect to the test crops was examined according to the following criteria, and evaluated in six stage scores of 0 to 5. A vat having an area of 81 cm^2 and a depth of 3.5 cm was filled with upland soil, then, seeds of Amaranthus viridis (green amaranthus), Chenopodium album (common lambsquarters), and corn were seeded thereto, and the seeds were covered with soil of about 0.5 cm. Next day, a wettable powder or an emulsifiable concentrate of the compound of the present invention prepared according to Formulation Example was diluted, and a spray treatment was uniformly performed on the covered oil so as to be a predetermined dosage. The herbicidal effect with respect to the test weeds and the phytotoxicity with respect to corn about 21 days after the treatment were evaluated according to the evaluation criteria in six stages of 0 to 5 described above.

[8] = test system: Chenopodium album (common lambsquarters); experiment: as above; settings: application amount 500 g a.i/ha, soil spray treatment before weeds are generated, about 21 days after the treatment, score 0 to 5
Text: as §2

corn [9] = experiment: Test Example-2: phytotoxicity by a soil treatment before weeds are generated under upland field conditions; settings: application amount 500 g a.i/ha, soil spray treatment before weeds are generated, about 21 days after the treatment, score 0 to 5
Text: as §2

[10] = test system: Abutilon theophrasti (velvetleaf); experiment: Test Example-4: herbicidal effect by a foliage treatment after weeds are generated under upland field conditions; settings: 500 g a.i/ha, foliage treatment after emergence, about 14 days after treatment, score 0-5
Procedure, shortened: (§3)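 Post-emergence foliar treatment: seedlings raised 14 days in watered upland soil are sprayed with the diluted formulation at a predetermined dose, using a spray volume of 4000 L/ha. Effects on weeds and on corn are rated 0–5 roughly two weeks afterwards.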

[11] = test system: Amaranthus viridis (green amaranthus); experiment: as above; settings: 500 g a.i/ha, foliage treatment after emergence, about 14 days after treatment, score 0-5
Procedure, shortened: as §3

[12] = test system: Chenopodium album (common lambsquarters); experiment: as above; settings: 500 g a.i/ha, foliage treatment after emergence, about 14 days after treatment, score 0-5
Procedure, shortened: as §3

corn [13] = experiment: Test Example-4: phytotoxicity by a foliage treatment after weeds are generated under upland field conditions; settings: 500 g a.i/ha, foliage treatment after emergence, about 14 days after treatment, score 0-5
Procedure, shortened: as §3

## C#CC(C)Oc1cc(-c2c(Cl)n3n(c2=O)CCCC3)c(F)cc1Cl (centres unmarked) [Example 1-243]
[1]
  Herbicidal effect Cyperus difformis: 5 (Herbicidal effect/phytotoxicity was 90% or greater)
[2]
  Herbicidal effect Echinochloa oryzicola: 5 (Herbicidal effect/phytotoxicity was 90% or greater)
[3]
  Herbicidal effect Eleocharis acicularis: 5 (Herbicidal effect/phytotoxicity was 90% or greater)
[4]
  Herbicidal effect Monochoria vaginalis: 5 (Herbicidal effect/phytotoxicity was 90% or greater)
[5]
  Herbicidal effect Scirpus juncoides: 5 (Herbicidal effect/phytotoxicity was 90% or greater)
[6]
  Herbicidal effect Broadleaf weed: 5 (Herbicidal effect/phytotoxicity was 90% or greater)
[7]
  Herbicidal effect Amaranthus viridis: 5 (Herbicidal effect/phytotoxicity was 90% or greater)
[8]
  Herbicidal effect Chenopodium album: 5 (Herbicidal effect/phytotoxicity was 90% or greater)
Corn [9]
  Phytotoxicity Corn: 0 (Herbicidal effect/phytotoxicity was 0% to 10%)
[10]
  Herbicidal effect Abutilon theophrast: 5 (Herbicidal effect/phytotoxicity was 90% or greater)
[11]
  Herbicidal effect Amaranthus viridis: 5 (Herbicidal effect/phytotoxicity was 90% or greater)
[12]
  Herbicidal effect Chenopodium album: 5 (Herbicidal effect/phytotoxicity was 90% or greater)
Corn [13]
  Phytotoxicity Corn: 1 (Herbicidal effect/phytotoxicity was 10% to 30%)

## CC(C)Oc1cc(-c2c(Cl)n3n(c2=O)CCCC3)c(F)cc1Cl [Example 1-151]
[1]
  Herbicidal effect Cyperus difformis: 5 (Herbicidal effect/phytotoxicity was 90% or greater)
[2]
  Herbicidal effect Echinochloa oryzicola: 5 (Herbicidal effect/phytotoxicity was 90% or greater)
[3]
  Herbicidal effect Eleocharis acicularis: 5 (Herbicidal effect/phytotoxicity was 90% or greater)
[4]
  Herbicidal effect Monochoria vaginalis: 5 (Herbicidal effect/phytotoxicity was 90% or greater)
[5]
  Herbicidal effect Scirpus juncoides: 5 (Herbicidal effect/phytotoxicity was 90% or greater)
[6]
  Herbicidal effect Broadleaf weed: 5 (Herbicidal effect/phytotoxicity was 90% or greater)
[7]
  Herbicidal effect Amaranthus viridis: 5 (Herbicidal effect/phytotoxicity was 90% or greater)
[8]
  Herbicidal effect Chenopodium album: 5 (Herbicidal effect/phytotoxicity was 90% or greater)
Corn [9]
  Phytotoxicity Corn: 0 (Herbicidal effect/phytotoxicity was 0% to 10%)
[10]
  Herbicidal effect Abutilon theophrast: 5 (Herbicidal effect/phytotoxicity was 90% or greater)
[11]
  Herbicidal effect Amaranthus viridis: 5 (Herbicidal effect/phytotoxicity was 90% or greater)
[12]
  Herbicidal effect Chenopodium album: 5 (Herbicidal effect/phytotoxicity was 90% or greater)
Corn [13]
  Phytotoxicity Corn: 1 (Herbicidal effect/phytotoxicity was 10% to 30%)

## C=C(C)COc1cc(-c2c(Cl)n3n(c2=O)CCCC3)c(F)cc1Cl [Example 1-214]
[1]
  Herbicidal effect Cyperus difformis: 5 (Herbicidal effect/phytotoxicity was 90% or greater)
[2]
  Herbicidal effect Echinochloa oryzicola: 5 (Herbicidal effect/phytotoxicity was 90% or greater)
[3]
  Herbicidal effect Eleocharis acicularis: 5 (Herbicidal effect/phytotoxicity was 90% or greater)
[4]
  Herbicidal effect Monochoria vaginalis: 5 (Herbicidal effect/phytotoxicity was 90% or greater)
[5]
  Herbicidal effect Scirpus juncoides: 5 (Herbicidal effect/phytotoxicity was 90% or greater)
[6]
  Herbicidal effect Broadleaf weed: 5 (Herbicidal effect/phytotoxicity was 90% or greater)
[7]
  Herbicidal effect Amaranthus viridis: 5 (Herbicidal effect/phytotoxicity was 90% or greater)
[8]
  Herbicidal effect Chenopodium album: 5 (Herbicidal effect/phytotoxicity was 90% or greater)
Corn [9]
  Phytotoxicity Corn: 0 (Herbicidal effect/phytotoxicity was 0% to 10%)
[10]
  Herbicidal effect Abutilon theophrast: 5 (Herbicidal effect/phytotoxicity was 90% or greater)
[11]
  Herbicidal effect Amaranthus viridis: 5 (Herbicidal effect/phytotoxicity was 90% or greater)
[12]
  Herbicidal effect Chenopodium album: 5 (Herbicidal effect/phytotoxicity was 90% or greater)
Corn [13]
  Phytotoxicity Corn: 2 (Herbicidal effect/phytotoxicity was 30% to 50%)

## C#CCOc1cc(-c2c(Cl)n3n(c2=O)CCCC3)c(Cl)cc1Cl [Example 1-302]
[1]
  Herbicidal effect Cyperus difformis: 5 (Herbicidal effect/phytotoxicity was 90% or greater)
[2]
  Herbicidal effect Echinochloa oryzicola: 5 (Herbicidal effect/phytotoxicity was 90% or greater)
[3]
  Herbicidal effect Eleocharis acicularis: 5 (Herbicidal effect/phytotoxicity was 90% or greater)
[4]
  Herbicidal effect Monochoria vaginalis: 5 (Herbicidal effect/phytotoxicity was 90% or greater)
[5]
  Herbicidal effect Scirpus juncoides: 5 (Herbicidal effect/phytotoxicity was 90% or greater)
[6]
  Herbicidal effect Broadleaf weed: 5 (Herbicidal effect/phytotoxicity was 90% or greater)
[7]
  Herbicidal effect Amaranthus viridis: 5 (Herbicidal effect/phytotoxicity was 90% or greater)
[8]
  Herbicidal effect Chenopodium album: 5 (Herbicidal effect/phytotoxicity was 90% or greater)
Corn [9]
  Phytotoxicity Corn: 2 (Herbicidal effect/phytotoxicity was 30% to 50%)
[10]
  Herbicidal effect Abutilon theophrast: 5 (Herbicidal effect/phytotoxicity was 90% or greater)
[11]
  Herbicidal effect Amaranthus viridis: 5 (Herbicidal effect/phytotoxicity was 90% or greater)
[12]
  Herbicidal effect Chenopodium album: 5 (Herbicidal effect/phytotoxicity was 90% or greater)
Corn [13]
  Phytotoxicity Corn: 1 (Herbicidal effect/phytotoxicity was 10% to 30%)

## COc1cc(-c2c(Cl)n3n(c2=O)CCCC3)c(Cl)cc1Cl [Example 1-292]
[1]
  Herbicidal effect Cyperus difformis: 5 (Herbicidal effect/phytotoxicity was 90% or greater)
[2]
  Herbicidal effect Echinochloa oryzicola: 5 (Herbicidal effect/phytotoxicity was 90% or greater)
[3]
  Herbicidal effect Eleocharis acicularis: 5 (Herbicidal effect/phytotoxicity was 90% or greater)
[4]
  Herbicidal effect Monochoria vaginalis: 5 (Herbicidal effect/phytotoxicity was 90% or greater)
[5]
  Herbicidal effect Scirpus juncoides: 5 (Herbicidal effect/phytotoxicity was 90% or greater)
[6]
  Herbicidal effect Broadleaf weed: 5 (Herbicidal effect/phytotoxicity was 90% or greater)
[7]
  Herbicidal effect Amaranthus viridis: 5 (Herbicidal effect/phytotoxicity was 90% or greater)
[8]
  Herbicidal effect Chenopodium album: 5 (Herbicidal effect/phytotoxicity was 90% or greater)
Corn [9]
  Phytotoxicity Corn: 2 (Herbicidal effect/phytotoxicity was 30% to 50%)
[10]
  Herbicidal effect Abutilon theophrast: 5 (Herbicidal effect/phytotoxicity was 90% or greater)
[11]
  Herbicidal effect Amaranthus viridis: 5 (Herbicidal effect/phytotoxicity was 90% or greater)
[12]
  Herbicidal effect Chenopodium album: 5 (Herbicidal effect/phytotoxicity was 90% or greater)
Corn [13]
  Phytotoxicity Corn: 1 (Herbicidal effect/phytotoxicity was 10% to 30%)

## O=c1c(-c2cc(NS(=O)(=O)C3CC3)c(Cl)cc2F)c(Cl)n2n1CCCC2 [Example 5-58]
[7]
  Herbicidal effect Amaranthus viridis: 5 (Herbicidal effect/phytotoxicity was 90% or greater)
[8]
  Herbicidal effect Chenopodium album: 5 (Herbicidal effect/phytotoxicity was 90% or greater)
Corn [9]
  Phytotoxicity Corn: 0 (Herbicidal effect/phytotoxicity was 0% to 10%)
[10]
  Herbicidal effect Abutilon theophrast: 5 (Herbicidal effect/phytotoxicity was 90% or greater)
[11]
  Herbicidal effect Amaranthus viridis: 5 (Herbicidal effect/phytotoxicity was 90% or greater)
[12]
  Herbicidal effect Chenopodium album: 5 (Herbicidal effect/phytotoxicity was 90% or greater)
Corn [13]
  Phytotoxicity Corn: 0 (Herbicidal effect/phytotoxicity was 0% to 10%)

## O=c1c(-c2cc(NS(=O)(=O)CCl)c(Cl)cc2F)c(Cl)n2n1CCOCC2 [Example 5-49]
[7]
  Herbicidal effect Amaranthus viridis: 5 (Herbicidal effect/phytotoxicity was 90% or greater)
[8]
  Herbicidal effect Chenopodium album: 5 (Herbicidal effect/phytotoxicity was 90% or greater)
Corn [9]
  Phytotoxicity Corn: 0 (Herbicidal effect/phytotoxicity was 0% to 10%)
[10]
  Herbicidal effect Abutilon theophrast: 5 (Herbicidal effect/phytotoxicity was 90% or greater)
[11]
  Herbicidal effect Amaranthus viridis: 5 (Herbicidal effect/phytotoxicity was 90% or greater)
[12]
  Herbicidal effect Chenopodium album: 5 (Herbicidal effect/phytotoxicity was 90% or greater)
Corn [13]
  Phytotoxicity Corn: 1 (Herbicidal effect/phytotoxicity was 10% to 30%)

## C#CCOc1cc(-c2c(Cl)n3n(c2=O)CCCCC3)c(F)cc1Cl [Example 1-239]
[7]
  Herbicidal effect Amaranthus viridis: 5 (Herbicidal effect/phytotoxicity was 90% or greater)
[8]
  Herbicidal effect Chenopodium album: 5 (Herbicidal effect/phytotoxicity was 90% or greater)
Corn [9]
  Phytotoxicity Corn: 0 (Herbicidal effect/phytotoxicity was 0% to 10%)
[10]
  Herbicidal effect Abutilon theophrast: 5 (Herbicidal effect/phytotoxicity was 90% or greater)
[11]
  Herbicidal effect Amaranthus viridis: 5 (Herbicidal effect/phytotoxicity was 90% or greater)
[12]
  Herbicidal effect Chenopodium album: 5 (Herbicidal effect/phytotoxicity was 90% or greater)
Corn [13]
  Phytotoxicity Corn: 2 (Herbicidal effect/phytotoxicity was 30% to 50%)
